# Laboratory results reported in ChEMBL document CHEMBL4017503, “Identification of a New Zinc Binding Chemotype by Fragment Screening” (J Med Chem, 2017).
# Target: Carbonic anhydrase 2 (Homo sapiens, UniProt P00918)
# Assay: Binding affinity to human carbonic anhydrase 2 by surface plasmon resonance spectrometry
row,Kd,SMILES
1,> 2000 µM,O=C1NC(=O)C(c2ccccc2)N1 (stereo not given)
2,> 2000 µM,O=C1NC(=O)C(Cc2ccccc2)N1 (stereo not given)
3,> 2000 µM,COc1ccc(/C=C2\SC(=O)NC2=O)c(OC)c1
4,> 2000 µM,O=C1NC(=O)/C(=C/c2ccccc2)N1
5,> 2000 µM,COc1ccc(/C=C2\NC(=O)NC2=O)c(OC)c1
6,> 2000 µM,COc1ccc(/C=C2\NC(=S)NC2=O)c(OC)c1
7,> 2000 µM,COc1ccc(CC2NC(=O)NC2=O)c(OC)c1 (stereo not given)
8,> 2000 µM,CC1(C)OC(=O)NC1=O [DIMETHADIONE]
9,> 2000 µM,CN1C(=O)OC(C)(C)C1=O [TRIMETHADIONE]

# Test system: not listed separately
# Assay: Dissociation constant, pKa of the compound
# Assay type: physicochemical
row,pKa,SMILES
1,5.5,O=C1NC(=O)C(c2ccccc2)O1 (stereo not given) [PEMOLINE DIONE]
